Common to all, as to test: Bliss interaction score (quartile over a dose matrix) (fitness difference); higher = more antagonism (negative = synergy)
Assay [1] concerns S. pneumoniae D39V. The procedure, abridged:
(§1)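 The Bliss score was calculated by subtracting the expected fitness, the product of single-drug values, from the observed fitness. OD595 at entry into stationary phase, over the plate's robust no-drug mean and capped at 1, served as the fitness readout. Single-drug values were inferred from combination data, and scores are summarised by quartiles across technical, biological and donor/recipient replicates.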

In assay [2] the test system is B. subtilis 168. The procedure, abridged:
as §1

Assay [3] has as its system S. aureus Newman. The procedure, abridged: as §1
Assay [4] relates to S. aureus DSM 20231. Put shortly:
as §1

Each structure is given as a SMILES string.

This passage reports Bliss interaction score results from the supplement of paper PMC10627819.
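Further: first quartile when negative (synergy) and third quartile when positive (antagonism).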

Take `CO[C@@]12[C@H](COC(N)=O)C3=C(C(=O)C(C)=C(N)C3=O)N1C[C@@H]1N[C@@H]12` [MitomycinC] + CN1C2=CC=CC=C2N=C3C1=CC=CC3=O [Pyocyanin]: the Bliss interaction score is 0.0705 in assay [1], 0.0608 in assay [2], -0.0681 in assay [3] and 0.0464 in assay [4].
The matching figures for `CO[C@@]12[C@H](COC(N)=O)C3=C(C(=O)C(C)=C(N)C3=O)N1C[C@@H]1N[C@@H]12` [MitomycinC] + CN(C)c1cc(NC(=O)CNC(C)(C)C)c(O)c2c1C[C@H]1C[C@H]3[C@H](N(C)C)C(O)=C(C(N)=O)C(=O)[C@@]3(O)C(O)=C1C2=O [Tigecycline]: 0.0464, 0.245, -0.0488 and 0.0285.
On the same counts, the results for `CO[C@@]12[C@H](COC(N)=O)C3=C(C(=O)C(C)=C(N)C3=O)N1C[C@@H]1N[C@@H]12` [MitomycinC] + CN(N=O)C(=O)N[C@@H](C=O)[C@@H](O)[C@H](O)[C@H](O)CO [Streptozotocin] are -0.0613, -0.037, 0.0483 and 0.0493.
On to `CO[C@@]12[C@H](COC(N)=O)C3=C(C(=O)C(C)=C(N)C3=O)N1C[C@@H]1N[C@@H]12` [MitomycinC] + CN[C@@H]1[C@H](O)[C@H](NC)[C@H]2O[C@@]3(O)C(=O)C[C@@H](C)O[C@H]3O[C@@H]2[C@H]1O [Spectinomycin], for which the Bliss interaction score is -0.06 in assay [1], 0.0749 in assay [2], -0.0974 in assay [3] and 0.0772 in assay [4].
Consider `CO[C@@]12[C@H](COC(N)=O)C3=C(C(=O)C(C)=C(N)C3=O)N1C[C@@H]1N[C@@H]12` [MitomycinC] + CN[C@@H]1[C@H](O[C@H]2[C@H](O[C@H]3[C@H](O)[C@@H](O)[C@H](N=C(N)N)[C@@H](O)[C@@H]3N=C(N)N)O[C@@H](C)[C@]2(O)C=O)O[C@@H](CO)[C@H](O)[C@H]1O [Streptomycin], for which the Bliss interaction score is -0.072 in assay [1], -0.21 in assay [2], -0.078 in assay [3] and -0.117 in assay [4].
The matching figures for `CO[C@@]12[C@H](COC(N)=O)C3=C(C(=O)C(C)=C(N)C3=O)N1C[C@@H]1N[C@@H]12` [MitomycinC] + CN[C@H](CC(C)C)C(=O)N[C@H]1C(=O)N[C@@H](CC(N)=O)C(=O)N[C@H]2C(=O)N[C@H]3C(=O)N[C@H](C(=O)N[C@H](C(=O)O)c4cc(O)cc(O)c4-c4cc3ccc4O)[C@H](O)c3ccc(c(Cl)c3)Oc3cc2cc(c3O[C@@H]2O[C@H](CO)[C@@H](O)[C@H](O)[C@H]2O[C@H]2C[C@](C)(N)[C@H](O)[C@H](C)O2)Oc2ccc(cc2Cl)[C@H]1O [Vancomycin]: 0.124, 0.0157, -0.0526 and 0.0497.
The matching figures for `CO[C@@]12[C@H](COC(N)=O)C3=C(C(=O)C(C)=C(N)C3=O)N1C[C@@H]1N[C@@H]12` [MitomycinC] + CN[C@H](CC(C)C)C(=O)N[C@H]1C(=O)N[C@@H](CC(N)=O)C(=O)N[C@H]2C(=O)N[C@H]3C(=O)N[C@H](C(=O)N[C@H](C(=O)O)c4cc(O)cc(O)c4-c4cc3ccc4O)[C@H](O[C@H]3C[C@](C)(N)[C@@H](O)[C@H](C)O3)c3ccc(c(Cl)c3)Oc3cc2cc(c3O[C@@H]2O[C@H](CO)[C@@H](O)[C@H](O)[C@H]2O[C@H]2C[C@](C)(NCc3ccc(-c4ccc(Cl)cc4)cc3)[C@@H](O)[C@H](C)O2)Oc2ccc(cc2Cl)[C@H]1O [Oritavancin]: -0.0514, 0.017, 0.0841 and -0.0806.
`CO[C@@]12[C@H](COC(N)=O)C3=C(C(=O)C(C)=C(N)C3=O)N1C[C@@H]1N[C@@H]12` [MitomycinC] + CO[C@@H]1[C@@H](OC(N)=O)[C@@H](O)[C@H](Oc2ccc3c(O)c(NC(=O)c4ccc(O)c(CC=C(C)C)c4)c(=O)oc3c2C)OC1(C)C [Novobiocin]: the Bliss interaction score was -0.11 in assay [1], -0.117 in assay [2], -0.137 in assay [3] and -0.0588 in assay [4].
The matching figures for `CO[C@@]12[C@H](COC(N)=O)C3=C(C(=O)C(C)=C(N)C3=O)N1C[C@@H]1N[C@@H]12` [MitomycinC] + CO[C@H]1/C=C/O[C@@]2(C)Oc3c(C)c(O)c4c(O)c(c(/C=N/N5CCN(C)CC5)c(O)c4c3C2=O)NC(=O)/C(C)=C\C=C\[C@H](C)[C@H](O)[C@@H](C)[C@@H](O)[C@@H](C)[C@H](OC(C)=O)[C@@H]1C [Rifampicin]: -0.117, 0.155, -0.0175 and -0.0914.
As to `CO[C@@]12[C@H](COC(N)=O)C3=C(C(=O)C(C)=C(N)C3=O)N1C[C@@H]1N[C@@H]12` [MitomycinC] + COc1c(N2C[C@@H]3CCCN[C@@H]3C2)c(F)cc2c(=O)c(C(=O)O)cn(C3CC3)c12 [Moxifloxacin], the Bliss interaction score in assay [1] was 0.056; in assay [2] it was 0.0263; in assay [3], -0.099; in assay [4], 0.07.
On the same counts, the results for `CO[C@@]12[C@H](COC(N)=O)C3=C(C(=O)C(C)=C(N)C3=O)N1C[C@@H]1N[C@@H]12` [MitomycinC] + COc1cc(Cc2cnc(N)nc2N)cc(OC)c1OC [Trimethoprim] are -0.141, -0.108, -0.127 and -0.102.
The matching figures for `CO[C@@]12[C@H](COC(N)=O)C3=C(C(=O)C(C)=C(N)C3=O)N1C[C@@H]1N[C@@H]12` [MitomycinC] + COc1ccc(C[C@H](N)C(=O)N[C@H]2[C@@H](O)[C@H](n3cnc4c(N(C)C)ncnc43)O[C@@H]2CO)cc1 [Puromycin]: 0.0762, -0.0693, 0.0521 and 0.0528.
On the same counts, the results for `CO[C@@]12[C@H](COC(N)=O)C3=C(C(=O)C(C)=C(N)C3=O)N1C[C@@H]1N[C@@H]12` [MitomycinC] + C[n+]1ccc(-c2cc[n+](C)cc2)cc1 [Paraquat] are -0.0446, 0.0434, 0.04 and -0.0406.
